The subject of the experiment is LEFCH. Briefly: Example I: postemergence foliar-applied weed control, greenhouse. Format: in vivo, Leptochloa chinensis (L.) Nees (Chinese sprangletop). Conditions: for Visual Weed Control (%) - 21 DAA LEFCH Obs / Visual Weed Control (%) - 22 DAA LEFCH Obs / Visual Weed Control (%) - 19 DAA LEFCH Obs: foliar. A digest of the protocol:
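Plants grown in loam/sandy loam–calcareous grit soil (80:20) in greenhouse, 14 hr photoperiod, about 29° C. day/26° C. night, treated postemergence at first to fourth true leaf stage. Foliar spray at 187 L/ha with 1.25% (v/v) crop oil concentrate; Compound A dosed on acid equivalent basis, partners on active ingredient basis.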

Results on 4 molecules are retold here after patent US20130310256A1, “HERBICIDAL COMPOSITIONS COMPRISING 4-AMINO-3-CHLORO-5-FLUORO-6-(4-CHLORO-2-FLUORO-3-METHOXYPHENYL) PYRIDINE-2-CARBOXYLIC ACID OR A DERIVATIVE THEREOF AND VLCFA AND LIPID SYNTHESIS INHIBITING HERBICIDES” (DOW AGROSCIENCES LLC, priority 2008, published 2013).

Several values for one entry are separate records, joined by “and”; a condition that tells them apart may be missing. Identical values can stand only once.

For the molecule `CCS(=O)(=O)Oc1ccc2c(c1)C(C)(C)CO2` [Benfuresate, 2,3-dihydro-3,3-dimethyl-5-benzofuranyl ethanesulfonate], the “Visual Weed Control (%) - 21 DAA LEFCH Obs” value amounted to 0% (75 gai/ha), 10% (150 gai/ha) and 10% (300 gai/ha). For the same molecule, the “Visual Weed Control (%) - 22 DAA LEFCH Obs” value (300 gai/ha) is given as 10%.

With `CCN(CC)C(=O)n1cnc(S(=O)(=O)c2c(C)cc(C)cc2C)n1` [Cafenstrole, N,N-diethyl-3-[(2,4,6-trimethylphenyl)sulfonyl]-1H-1,2,4-triazole-1-carboxamide], the “Visual Weed Control Obs” value is listed as 0% (20 DAA, 26.25 gai/ha Himeadow WP); 0% (20 DAA, 52.5 gai/ha Himeadow WP); 0% (20 DAA, 105 gai/ha Himeadow WP); 23% (21 DAA, 210 gai/ha Lapost Flowable).

Regarding `COc1c(Cl)ccc(-c2nc(C(=O)O)c(Cl)c(N)c2F)c1F` [Compound A Acid, 4-amino-3-chloro-6-(4-chloro-2-fluoro-3-methoxyphenyl)-5-fluoropyridine-2-carboxylic acid], the “Visual Weed Control (%) - 22 DAA LEFCH Obs” value is, setting by setting: (10.6 gae/ha) 10%; (21.2 gae/ha) 10%. Further, the “Visual Weed Control Obs” value (20 DAA, 17.5 gae/ha) is 30% and 50%; the “Visual Weed Control Obs” value (21 DAA, 17.5 gae/ha) came to 20%; the “Visual Weed Control Obs” value (21 DAA, 35 gae/ha) was 45%.

For the molecule `COc1c(Cl)ccc(-c2nc(C(=O)OCc3ccccc3)c(Cl)c(N)c2F)c1F` [Compound A Benzyl Ester, benzyl ester of 4-amino-3-chloro-5-fluoro-6-(4-chloro-2-fluoro-3-methoxy-phenyl)pyridine-2-carboxylic acid], the “Visual Weed Control (%) - 21 DAA LEFCH Obs” value runs as follows: (5.3 gae/ha) 0%; (8 gae/ha) 20%; (10.6 gae/ha) 20%; (21.2 gae/ha) 35%. For the same molecule, the “Visual Weed Control (%) - 22 DAA LEFCH Obs” value by setting is: (8 gae/ha) 35%; (16 gae/ha) 40%. The “Visual Weed Control (%) - 19 DAA LEFCH Obs” value is, setting by setting: (16 gae/ha) 45%; (32 gae/ha) 50%. Further, the “Visual Weed Control Obs” value (20 DAA, 17.5 gae/ha) was 50% and 25%.
